From article PMC9828244, “Molecular and functional characterization of an evolutionarily conserved CREB‐binding protein in the Lymnaea CNS” (The FASEB Journal, 2022) come the findings set out here.

This test has as its target T1, LymCBP HAT domain (Lymnaea stagnalis, UniProt E2QC33).
T1 construct: HAT (catalytic) domain, R1240 to K1641 of LymCBP, His6-tag, pET28a(+), expressed in E. coli Rosetta-gami 2(DE3); cDNA from Lymnaea CNS; Ni-NTA and cation exchange
Kind of test: autoradiography of […]-acetylated histone H1 after SDS-PAGE. The class given is biochemical. The note with it: pH 8.0, 30 °C, 4 h.

The mark [1] stands for this setting: 50 uM inhibitor, calf thymus histone H1, [14C]-acetyl-CoA.

SMILES strings stand for the structures.

T1 sequence (E2QC33 entry or part of it): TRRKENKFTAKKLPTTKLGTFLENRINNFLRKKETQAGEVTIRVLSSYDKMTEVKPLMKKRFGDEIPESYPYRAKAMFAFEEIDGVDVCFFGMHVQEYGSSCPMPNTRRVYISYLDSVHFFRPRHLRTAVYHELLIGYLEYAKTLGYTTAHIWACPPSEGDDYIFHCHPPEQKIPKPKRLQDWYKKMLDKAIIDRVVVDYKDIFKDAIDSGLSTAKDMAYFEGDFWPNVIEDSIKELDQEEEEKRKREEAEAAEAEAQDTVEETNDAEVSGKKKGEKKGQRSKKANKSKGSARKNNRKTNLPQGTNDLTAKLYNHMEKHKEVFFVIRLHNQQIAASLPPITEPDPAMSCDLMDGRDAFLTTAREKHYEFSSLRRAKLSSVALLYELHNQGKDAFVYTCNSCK

With `C=C(C)[C@@H](CC=C(C)C)C[C@@]12C[C@@H](CC=C(C)C)C(C)(C)[C@@](CC=C(C)C)(C(=O)C(=C(O)c3ccc(O)c(O)c3)C1=O)C2=O` [garcinol], the “autoradiography of [14C]-acetylated histone H1 after SDS-PAGE” value (“autoradiography” for short) under setting [1] is recorded as “In the presence of HAT inhibitors in the incubation solution, however, H1 acetylation signals were eliminated”. As to `CC(=O)SCCNC(=O)CCNC(=O)[C@H](O)C(C)(C)COP(=O)(O)OP(=O)(O)OC[C@H]1O[C@@H](n2cnc3c(N)ncnc32)[C@H](O)[C@@H]1OP(=O)(O)O` [[14C]-acetyl-CoA], the “autoradiography” value (calf thymus histone H1 as acetyl acceptor, no inhibitor, labelled compound) is “in the absence of HAT inhibitors in the incubation solution, LymCBP acetylated histone H1”. Turning to `COc1cc(/C=C/C(=O)CC(=O)/C=C/c2ccc(O)c(OC)c2)ccc1O` [curcumin], the “autoradiography” value under setting [1] was “In the presence of HAT inhibitors in the incubation solution, however, H1 acetylation signals were eliminated”. `CCCCCCCCCCCCCCCc1cccc(O)c1C(=O)O` [anacardic acid]: the “autoradiography” value under setting [1] is recorded as “In the presence of HAT inhibitors in the incubation solution, however, H1 acetylation signals were eliminated”.
